Counter-ions that a name gives are not always drawn.
Columns and labels:
[1] = molecular target: T1, human JAK3 kinase domain (JH1) (Homo sapiens, UniProt P52333); assay: JH1 biochemical assay for JAK3 (ADP-Glo kinase assay, recombinant JH1 catalytic domain, JAK3-974 peptide, 4 μM ATP); settings: JH1 kinase domain, ADP-Glo
T1 construct: recombinantly generated catalytic kinase (also known as JH1) domain of human JAK1, JAK2, JAK3 and TYK2
Procedure, shortened: (§1)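 ADP-Glo luminescence with 50 μM peptide and 100 min reactions: JAK1 4 nM with JAK3-342 peptide; JAK2, JAK3 and TYK2 at 0.2, 0.3 and 2 nM with JAK3-974 peptide. Compounds tested from 10 or 1 μM top, 11 points, 3-fold. IC50 from a 4-parameter logistic fit of normalized activity.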

[2] = molecular target: T2, human JAK2 kinase domain (JH1) (Homo sapiens, UniProt O60674); assay: JH1 biochemical assay for JAK2 (ADP-Glo kinase assay, recombinant JH1 catalytic domain, JAK3-974 peptide, 15 μM ATP); settings: JH1 kinase domain, ADP-Glo
T2 construct: recombinantly generated catalytic kinase (also known as JH1) domain of human JAK1, JAK2, JAK3 and TYK2
Procedure, shortened: as §1

[3] = molecular target: T3, human TYK2 kinase domain (JH1) (Homo sapiens, UniProt P29597); assay: JH1 biochemical assay for TYK2 (ADP-Glo kinase assay, recombinant JH1 catalytic domain, JAK3-974 peptide, 10 μM ATP); settings: JH1 kinase domain, ADP-Glo
T3 construct: recombinantly generated catalytic kinase (also known as JH1) domain of human JAK1, JAK2, JAK3 and TYK2
T3 sequence (P29597 897-1176 limits assumed): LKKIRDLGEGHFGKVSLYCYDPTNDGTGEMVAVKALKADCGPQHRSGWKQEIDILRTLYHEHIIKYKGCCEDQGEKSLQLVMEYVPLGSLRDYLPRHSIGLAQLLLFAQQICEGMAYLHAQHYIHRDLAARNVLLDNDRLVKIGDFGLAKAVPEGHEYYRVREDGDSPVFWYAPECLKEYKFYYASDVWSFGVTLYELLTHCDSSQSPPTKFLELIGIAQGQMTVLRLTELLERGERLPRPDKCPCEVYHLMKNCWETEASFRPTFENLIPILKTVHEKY
Procedure, shortened: as §1

[4] = molecular target: T4, human JAK1 kinase domain (JH1) (Homo sapiens, UniProt P23458); assay: JH1 biochemical assay for JAK1 (ADP-Glo kinase assay, recombinant JH1 catalytic domain, JAK3-342 peptide, 35 μM ATP); settings: JH1 kinase domain, ADP-Glo
T4 construct: recombinantly generated catalytic kinase (also known as JH1) domain of human JAK1, JAK2, JAK3 and TYK2
Procedure, shortened: as §1

[5] = molecular target: Tyk2 kinase activity on STAT4 in NK92 cells (Homo sapiens, UniProt P29597); assay: pSTAT4 cell assay (MSD; NK92 cells, 30 ng/mL IL2 stimulation); assay type: cell-based; settings: 30 ng/mL IL2, 15 minutes
Procedure, shortened: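 NK92, serum-starved; cpd 1 hr, 10-pt 4-fold from 10 μM; IL2 30 ng/mL 15 min; lyse; MSD with anti-STAT4 Abs; IC50 by 4-PL fit.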

[6] = molecular target: JAK1 kinase activity on STAT3 in TF1 cells (Homo sapiens, UniProt P23458); assay: pSTAT3 cell assay (MSD; TF1 cells, 30 ng/mL IL-6 stimulation); assay type: cell-based; settings: 30 ng/mL IL-6, 15 minutes
Procedure, shortened: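 Serum-starved TF1 cells with endogenous JAK1/STAT3 were pretreated 1 h with compound in a 10-point four-fold dilution series from 10 μM, then stimulated with 30 ng/mL IL-6 for 15 min. pSTAT3 in lysates was quantified by MSD immunoassay, and IC50 came from 4-parameter logistic fits.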

[7] = molecular target: JAK2 kinase activity on STAT5 in TF1 cells (Homo sapiens, UniProt O60674); assay: pSTAT5 cell assay (MSD; TF1 cells, 30 ng/mL IL-3 stimulation); assay type: cell-based; settings: 30 ng/mL IL-3, 15 minutes
Procedure, shortened: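 Serum-starved TF1 cells with native JAK2/STAT5 were pretreated 1 h with compound (10-point four-fold dilutions from 10 μM), then stimulated 15 min with 30 ng/mL IL-3. pSTAT5 in lysates quantified by MSD immunoassay; normalized percent activity fitted to a 4-parameter logistic curve for IC50.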

JAK2 kinase activity on STAT5 in TF1 cells, sequence (O60674 whole entry): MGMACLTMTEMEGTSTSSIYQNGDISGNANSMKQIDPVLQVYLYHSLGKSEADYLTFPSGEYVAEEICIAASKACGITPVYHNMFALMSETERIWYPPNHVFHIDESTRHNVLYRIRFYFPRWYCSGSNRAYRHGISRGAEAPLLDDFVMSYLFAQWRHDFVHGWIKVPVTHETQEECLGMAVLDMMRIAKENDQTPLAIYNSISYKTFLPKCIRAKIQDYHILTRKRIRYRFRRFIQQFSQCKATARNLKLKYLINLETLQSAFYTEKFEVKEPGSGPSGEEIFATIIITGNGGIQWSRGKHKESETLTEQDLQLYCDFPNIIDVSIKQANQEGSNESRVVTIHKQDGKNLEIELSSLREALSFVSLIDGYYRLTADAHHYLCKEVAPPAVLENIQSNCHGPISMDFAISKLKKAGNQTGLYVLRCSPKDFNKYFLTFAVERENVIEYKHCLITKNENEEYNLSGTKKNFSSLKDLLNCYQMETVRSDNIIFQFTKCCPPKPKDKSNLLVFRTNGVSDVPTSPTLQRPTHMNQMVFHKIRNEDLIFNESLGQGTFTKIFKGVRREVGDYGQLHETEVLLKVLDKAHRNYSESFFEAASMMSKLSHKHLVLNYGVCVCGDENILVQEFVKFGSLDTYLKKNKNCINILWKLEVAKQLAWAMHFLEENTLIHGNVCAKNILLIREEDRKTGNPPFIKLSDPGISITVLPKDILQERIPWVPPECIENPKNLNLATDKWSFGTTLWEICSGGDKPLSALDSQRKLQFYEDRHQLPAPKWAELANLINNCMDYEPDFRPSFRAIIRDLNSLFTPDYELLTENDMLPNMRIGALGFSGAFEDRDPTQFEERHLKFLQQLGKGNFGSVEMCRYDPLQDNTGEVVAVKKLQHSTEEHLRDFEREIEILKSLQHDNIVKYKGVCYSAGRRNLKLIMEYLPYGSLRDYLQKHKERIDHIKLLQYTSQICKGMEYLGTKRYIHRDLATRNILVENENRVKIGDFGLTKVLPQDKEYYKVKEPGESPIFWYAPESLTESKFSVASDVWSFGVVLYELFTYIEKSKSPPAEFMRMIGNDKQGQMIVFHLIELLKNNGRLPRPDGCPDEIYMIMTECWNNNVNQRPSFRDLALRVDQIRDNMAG
JAK1 kinase activity on STAT3 in TF1 cells, sequence (P23458 whole entry): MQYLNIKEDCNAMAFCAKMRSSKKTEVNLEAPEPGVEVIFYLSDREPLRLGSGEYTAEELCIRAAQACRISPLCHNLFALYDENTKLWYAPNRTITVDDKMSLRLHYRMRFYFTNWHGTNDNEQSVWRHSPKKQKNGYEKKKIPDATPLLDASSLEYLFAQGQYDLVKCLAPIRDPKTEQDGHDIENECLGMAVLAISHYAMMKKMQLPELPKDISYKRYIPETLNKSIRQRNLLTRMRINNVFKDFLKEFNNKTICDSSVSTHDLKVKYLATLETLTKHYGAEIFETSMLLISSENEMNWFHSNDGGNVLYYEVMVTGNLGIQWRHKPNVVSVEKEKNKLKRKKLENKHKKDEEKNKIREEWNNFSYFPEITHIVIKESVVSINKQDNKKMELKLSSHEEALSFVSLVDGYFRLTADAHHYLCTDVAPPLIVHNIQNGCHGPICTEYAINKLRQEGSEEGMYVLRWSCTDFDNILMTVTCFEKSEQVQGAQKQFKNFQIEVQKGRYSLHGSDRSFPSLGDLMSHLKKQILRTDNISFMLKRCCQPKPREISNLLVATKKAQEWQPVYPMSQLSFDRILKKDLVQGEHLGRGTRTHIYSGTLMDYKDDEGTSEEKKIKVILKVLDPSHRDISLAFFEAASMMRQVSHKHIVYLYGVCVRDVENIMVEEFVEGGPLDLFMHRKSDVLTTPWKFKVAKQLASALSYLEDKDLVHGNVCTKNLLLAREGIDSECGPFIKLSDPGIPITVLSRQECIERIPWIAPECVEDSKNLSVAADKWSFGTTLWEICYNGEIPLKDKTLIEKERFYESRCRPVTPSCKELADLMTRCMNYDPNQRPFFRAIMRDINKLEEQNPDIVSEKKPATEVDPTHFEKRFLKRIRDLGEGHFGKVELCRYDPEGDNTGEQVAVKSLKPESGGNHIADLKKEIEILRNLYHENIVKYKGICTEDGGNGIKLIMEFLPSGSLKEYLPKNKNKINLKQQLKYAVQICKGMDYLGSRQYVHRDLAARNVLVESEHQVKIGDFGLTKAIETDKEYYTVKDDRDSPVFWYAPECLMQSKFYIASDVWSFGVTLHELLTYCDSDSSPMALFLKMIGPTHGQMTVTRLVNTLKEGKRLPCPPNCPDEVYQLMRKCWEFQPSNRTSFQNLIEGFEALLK
T2 sequence (O60674 849-1124 limits assumed): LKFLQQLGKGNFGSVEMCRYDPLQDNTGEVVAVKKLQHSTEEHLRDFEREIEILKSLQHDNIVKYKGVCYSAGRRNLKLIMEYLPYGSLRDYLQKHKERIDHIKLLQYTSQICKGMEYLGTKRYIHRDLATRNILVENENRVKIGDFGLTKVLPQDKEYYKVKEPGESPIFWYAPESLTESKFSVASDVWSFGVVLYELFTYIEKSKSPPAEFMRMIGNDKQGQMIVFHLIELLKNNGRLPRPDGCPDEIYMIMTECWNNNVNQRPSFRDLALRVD
Tyk2 kinase activity on STAT4 in NK92 cells, sequence (P29597 whole entry): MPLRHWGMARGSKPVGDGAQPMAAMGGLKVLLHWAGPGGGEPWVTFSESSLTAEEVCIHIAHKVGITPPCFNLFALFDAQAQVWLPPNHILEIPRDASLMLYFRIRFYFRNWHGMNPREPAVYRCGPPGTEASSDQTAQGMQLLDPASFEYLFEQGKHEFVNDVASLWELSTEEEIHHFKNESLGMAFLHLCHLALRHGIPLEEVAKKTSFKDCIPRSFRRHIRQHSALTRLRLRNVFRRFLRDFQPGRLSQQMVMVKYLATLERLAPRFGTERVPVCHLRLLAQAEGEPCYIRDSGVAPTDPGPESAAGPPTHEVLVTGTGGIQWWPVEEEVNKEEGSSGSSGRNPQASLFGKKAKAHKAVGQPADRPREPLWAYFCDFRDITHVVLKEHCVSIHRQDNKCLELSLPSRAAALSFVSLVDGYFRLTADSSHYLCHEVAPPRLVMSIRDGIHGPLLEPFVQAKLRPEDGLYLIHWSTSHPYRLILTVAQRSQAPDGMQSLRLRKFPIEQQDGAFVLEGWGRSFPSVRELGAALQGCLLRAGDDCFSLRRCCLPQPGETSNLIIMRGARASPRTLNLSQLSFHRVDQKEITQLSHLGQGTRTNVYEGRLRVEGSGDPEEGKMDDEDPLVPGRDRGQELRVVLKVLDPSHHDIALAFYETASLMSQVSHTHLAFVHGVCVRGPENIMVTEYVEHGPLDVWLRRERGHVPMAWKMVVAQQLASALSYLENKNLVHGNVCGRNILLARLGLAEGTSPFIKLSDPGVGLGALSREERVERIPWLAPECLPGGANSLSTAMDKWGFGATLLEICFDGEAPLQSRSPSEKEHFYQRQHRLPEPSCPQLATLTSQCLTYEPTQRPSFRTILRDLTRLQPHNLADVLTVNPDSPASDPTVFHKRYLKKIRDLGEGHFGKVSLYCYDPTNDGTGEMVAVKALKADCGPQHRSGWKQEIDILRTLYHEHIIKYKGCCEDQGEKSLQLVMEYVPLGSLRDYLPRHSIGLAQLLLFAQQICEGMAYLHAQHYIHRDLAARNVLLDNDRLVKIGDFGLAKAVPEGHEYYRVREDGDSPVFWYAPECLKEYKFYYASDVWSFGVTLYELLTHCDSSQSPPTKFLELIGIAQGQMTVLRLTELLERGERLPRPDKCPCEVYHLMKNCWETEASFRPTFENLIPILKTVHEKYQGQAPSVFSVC
T4 sequence (P23458 875-1153 limits assumed): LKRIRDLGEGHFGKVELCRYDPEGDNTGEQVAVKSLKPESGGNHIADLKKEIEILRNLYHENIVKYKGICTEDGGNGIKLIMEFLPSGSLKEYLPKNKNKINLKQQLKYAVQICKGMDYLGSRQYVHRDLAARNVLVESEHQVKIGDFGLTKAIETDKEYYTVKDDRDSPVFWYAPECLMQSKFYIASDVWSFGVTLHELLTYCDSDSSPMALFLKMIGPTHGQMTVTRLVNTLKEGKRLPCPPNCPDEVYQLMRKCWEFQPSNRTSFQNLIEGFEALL
T1 sequence (P52333 822-1111 limits assumed): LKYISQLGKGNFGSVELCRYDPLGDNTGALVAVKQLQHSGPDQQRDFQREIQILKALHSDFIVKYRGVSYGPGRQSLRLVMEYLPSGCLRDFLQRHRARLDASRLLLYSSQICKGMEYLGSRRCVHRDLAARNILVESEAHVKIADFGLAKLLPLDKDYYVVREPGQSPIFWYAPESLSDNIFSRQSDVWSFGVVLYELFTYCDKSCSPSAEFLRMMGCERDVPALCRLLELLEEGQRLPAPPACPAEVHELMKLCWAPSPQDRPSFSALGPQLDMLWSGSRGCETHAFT

| Structure (SMILES) | IC50 [1] [µM] | IC50 [2] [µM] | IC50 [3] [µM] | IC50 [4] [µM] | IC50 [5] [µM] | IC50 [6] [µM] | IC50 [7] [µM] |
| --- | --- | --- | --- | --- | --- | --- | --- |
| C[C@@H]1CN(c2ccnn3cc(-c4cnc5cc(C#N)ccn45)cc23)C(=O)[C@]1(C#N)C1CC1 [Example 103, 3-(4-((3R,4S)-3-cyano-3-cyclopropyl-4-methyl-2-oxopyrrolidin-1-yl)pyrrolo[1,2-b]pyridazin-6-yl)imidazo[1,2-a]pyridine-7-carbonitrile trifluoroacetate] | > 10 | > 10 | 0.005 to 0.02 | > 10 | > 0.1 | > 10 | > 10 |
| Cc1cnc(-c2cc3c(N4C[C@@H](C)[C@@](C#N)(C5CC5)C4=O)ccnn3c2)s1 [Example 118, (3R,4S)-3-cyclopropyl-4-methyl-1-(6-(5-methylthiazol-2-yl)pyrrolo[1,2-b]pyridazin-4-yl)-2-oxopyrrolidine-3-carbonitrile trifluoroacetate] | 0.1 to 1 | 0.1 to 1 | 0.005 to 0.02 | 0.1 to 1 | > 0.1 | 5 to 10 | > 10 |
| C[C@@H]1CN(c2ccnn3cc(-c4ccc(C(=O)N(C)C)cn4)cc23)C(=O)[C@]1(C#N)C1CC1 [Example 124, 6-(4-((3R,4S)-3-cyano-3-cyclopropyl-4-methyl-2-oxopyrrolidin-1-yl)pyrrolo[1,2-b]pyridazin-6-yl)-N,N-dimethylnicotinamide trifluoroacetate] | 0.1 to 1 | 0.1 to 1 | 0.005 to 0.02 | 0.1 to 1 | > 0.1 | 5 to 10 | 5 to 10 |

The next lines start with the values.

| IC50 [1] [µM] | IC50 [2] [µM] | IC50 [3] [µM] | IC50 [4] [µM] | IC50 [5] [µM] | IC50 [6] [µM] | IC50 [7] [µM] | Structure (SMILES) |
| --- | --- | --- | --- | --- | --- | --- | --- |
| 0.1 to 1 | 0.1 to 1 | < 0.005 | 0.1 to 1 | > 0.1 | 1 to 5 | 5 to 10 | C[C@@H]1CN(c2ccnn3cc(-c4cc5ccccn5n4)cc23)C(=O)[C@]1(C#N)C1CC1 [Example 104, (3R,4S)-3-cyclopropyl-4-methyl-2-oxo-1-(6-(pyrazolo[1,5-a]pyridin-2-yl)pyrrolo[1,2-b]pyridazin-4-yl)pyrrolidine-3-carbonitrile trifluoroacetate] |
| 0.1 to 1 | 0.1 to 1 | < 0.005 | 0.1 to 1 | > 0.1 | > 10 | > 10 | C[C@@H]1CN(c2ccnn3cc(-c4cn5c(n4)CCC5)cc23)C(=O)[C@]1(C#N)C1CC1 [Example 106, (3R,4S)-3-cyclopropyl-1-(6-(6,7-dihydro-5H-pyrrolo[1,2-a]imidazol-2-yl)pyrrolo[1,2-b]pyridazin-4-yl)-4-methyl-2-oxopyrrolidine-3-carbonitrile trifluoroacetate] |
| 0.1 to 1 | 0.1 to 1 | 0.005 to 0.02 | 0.1 to 1 | > 0.1 | > 10 | > 10 | C[C@@H]1CN(c2ccnn3cc(-c4cc5n(n4)CCO5)cc23)C(=O)[C@]1(C#N)C1CC1 [Example 110, (3R,4S)-3-cyclopropyl-1-(6-(2,3-dihydropyrazolo[5,1-b]oxazol-6-yl)pyrrolo[1,2-b]pyridazin-4-yl)-4-methyl-2-oxopyrrolidine-3-carbonitrile trifluoroacetate] |
| 0.1 to 1 | 0.1 to 1 | < 0.005 | 0.1 to 1 | > 0.1 | > 10 | > 10 | C[C@@H]1CN(c2ccnn3cc(-c4cn(C)cn4)cc23)C(=O)[C@]1(C#N)C1CC1 [Example 111, (3R,4S)-3-cyclopropyl-4-methyl-1-(6-(1-methyl-1H-imidazol-4-yl)pyrrolo[1,2-b]pyridazin-4-yl)-2-oxopyrrolidine-3-carbonitrile trifluoroacetate] |
| 0.1 to 1 | 0.1 to 1 | 0.005 to 0.02 | 0.1 to 1 | > 0.1 | > 10 | > 10 | C[C@@H]1CN(c2ccnn3cc(-c4cn(C)nn4)cc23)C(=O)[C@]1(C#N)C1CC1 [Example 112, (3R,4S)-3-cyclopropyl-4-methyl-1-(6-(1-methyl-1H-1,2,3-triazol-4-yl)pyrrolo[1,2-b]pyridazin-4-yl)-2-oxopyrrolidine-3-carbonitrile trifluoroacetate] |
